From patent publication US20090056397A1, “NITROGEN CONTAINING FERTILIZER FOR PLANT GROWTH” (SweTree Technologies AB, priority 2000, published 2009) come the findings set out here.

The subject of series [1] is pine plants. The series can be described thus: Cultivation trials with pine plants in peat using various nitrogen sources. The format is in vivo. The following applies: 59 days; for change in growth of the pine plants on charge increase from three to ten millimoles per litre: nitrogen 3 mM to 10 mM; for growth of the pine plants (mean dry weight), ranking of the nitrogen sources: greenhouse 20° C., nitrogen 1, 3 and 10 mM, FIG. 1. The method, then: The cultivation trials presented below were carried out over a time period of 59 days in a greenhouse that was kept at a constant temperature of 20° C. Lighting was kept at 150 micromole light per square meter (m^2) and second (s). The lamps used to this end were Philips Powertone SON-T+400 Watt. 720 pine seeds were sown in pots that contained 0.5 litre unfertilized (but weakly […] five seeds per pot. The pots were plastic pots that included typically four small holes in the bottom of the pot. […] Fertilizer was administered on Monday and Tuesday of each week and the seeds, and later the seedlings or shoots, were watered each Sunday. The nutrient mixture and the water were both brought a pH of 5.0 with hydrochloric acid. Both the nutrient mixture and the water were administered manually to each pot with the aid of so-called bird pipette having a capacity of one decilitre. […] Eight different nutrient mixtures were tested and the nitrogen for each nutrient mixture was charged in three different concentrations, namely concentrations of one millimole per litre (1 mM), three millimole per litre (3 mM) and ten millimole per litre (10 mM). Six pots, and therewith thirty plants, were used for each nutrient mixture and each concentration, giving a total of 144 pots. […] Further dilution was required to obtain respective concentrations of three millimole and one millimole. The remaining seven nutrient mixtures were obtained, by preparing a stock solution that coincides totally with the before described commercial product but with the exception that the nitrogen source in the form of 61.5% nitrogen in nitrate form and 38.5% nitrogen in ammonium form was excluded. […] Each nutrient mixture based on the latter two nitrogen sources were prepared and have been given the designation +(plus) in the following. The addition is that the stock solution has been charged with twice the conventional amount of both potassium and magnesium. As those skilled in this art will realise, this has been done because a significant increase in the amount of ammonium nitrogen at the cost of the amount of nitrate nitrogen may result in a potassium and magnesium deficiency from the nutrient aspect. It will be noted that with regard to the inventive fertilizer, i.e. the basic protein amino acid arginine that contains four nitrogen atoms, the concentration has been calculated on the basis of one nitrogen atom, which means that the actual addition of the acid calculated in grams per litre is comparatively low or very low. At the end of the cultivation trials, the thirty pine plans in each trial series were taken up and their dry weight determined in grams. […] The sign I stand for the standard error defined as the standard deviation (which is a well defined term to describe the spread between tests) divided by the square root of the number of samples, in this case thirty samples.

The test system of series [2] is spruce plants. Put plainly: Cultivation trials with spruce plants in peat using various nitrogen sources. As to conditions: 59 days. The format is in vivo. The source says: 720 spruce seeds were sown in peat at the same time as and in parallel with the above described trials. The trials carried out on spruce seeds and on spruce plants stemming from the seed were identical to the earlier described trials. […] The standard deviation is also shown in this case.

The conditions of series [3]: for Retention % (adsorption or retention of the chemicals in the peat): 0.2 millimole chemical per gram peat, 5 millimolar solution, one hour at room temperature, mean of three tests, HPLC of liquid phase; for amount of supplied chemical found in the liquid (water) phase: same test as the retention, liquid phase above the peat.
Experimental: A given amount of peat of the same kind as that used in the cultivation trials and whose properties have been given above was dried in an oven at a temperature of 60° C. for 20 hours. […] Portions of this peat corresponding to 0.25 grams were inserted into nine test tubes. 5 ml water was delivered to each test tube, this water having been purified in filters from the company Millipore. The test tubes and their contents were then allowed to stand at room temperature for 20 hours, so that the peat would become wet through.
The aforesaid three chemicals, each in solid state, were weighed into three equal portions. Each portion was dissolved in 5 ml water that had been purified in the before described manner. The amount or weight of the substance was such as to obtain a substance concentration of 5 millimolar.
Each of the nine chemical solutions was delivered to a respective test tube that contained water-drenched peat. The amount of chemical added was 0.2 millimole per gram peat in all cases. Subsequent to supplying said liquid, each test tube was shaken by hand and thereafter allowed to stand at room temperature for one hour. The materials in the test tubes layered, such that the lowermost third contained a substantially clear liquid phase and the remainder of the tube contained liquid-drenched peat. A pipette was inserted into the test tube down to approximately midway of the liquid phase. About 1.5 millilitres of liquid was drawn off through the pipette and analysed with respect to its chemical content with the aid of HPLC-chromatography (HPLC=High Performance Liquid Chromatography).
As evident from the foregoing, three similar tests were carried out for each chemical.

Molecules are shown by their SMILES. Like-named read-outs stand apart in the source and are kept apart here.

For the compound `Cl.N` [Ammonium (NH4^+), ammonium chloride], in series [1], the “change in growth of the pine plants on charge increase from three to ten millimoles per litre” value was “catastrophic reduction in growth”. Also, in series [1] (nitrogen 3 mM), the “growth of the pine plants at a charge of three millimoles per litre” value is “sufficiently good growth”. Besides, in series [2] (nitrogen charge of ten millimoles per litre), the “state of the spruce plants at the end of the trial (toxicity limit)” value is listed as “dead at the end of the trial”. In addition, in series [3], the “Retention % (adsorption or retention of the chemicals in the peat)” value (from here on “Retention %”) was 28.0% and the “amount of supplied chemical found in the liquid (water) phase” value was “more than 70%”. Besides, in series [3] (listed as ammonium), the “Retention %” value worked out at 28%.

Take `N=C(N)NCCC[C@H](N)C(=O)O` [Arginine, arginine]: the “growth of the pine plants (mean dry weight), ranking of the nitrogen sources” value in series [1] is on record as “best growth”. Further, the “growth of the pine plants with increase in the nitrogen addition” value in series [1] (nitrogen 1 to 3 to 10 mM) is “increased constantly with an increase in the nitrogen addition”. For the same compound, the “growth of the spruce plants with increased nitrogen charges” value in series [2] (nitrogen 1 to 3 to 10 mM) is reported as “constantly increased growth”. In addition, in series [3], the “Retention %” value came out at 89.1% and the “amount of supplied chemical found in the liquid (water) phase” value is approximately 11%. Besides, the “Retention %” value in series [3] (listed as arginine) is given as approximately 90%.

As to `NCC(=O)O` [Glycine, glycine], in series [1], the “growth of the pine plants (mean dry weight), ranking of the nitrogen sources” value is “these three preparations are followed by the nutrient mixture that includes glycine”. For the same compound, the “change in growth of the pine plants on charge increase from three to ten millimoles per litre” value in series [1] is listed as “slight decrease in growth or at least not an increased growth”. In addition, the “Retention %” value is −1.9% in series [3] and “less than zero” in series [3] (listed as glycine).
